{"source": "paper PMC6720883", "about": "“In Vitro Inhibitory Effects of APINACA on Human Major Cytochrome P450, UDP-Glucuronosyltransferase Enzymes, and Drug Transporters” (Molecules, 2019)", "key": {"CYP2B6": {"molecular_target": "CYP2B6 (Homo sapiens, UniProt P20813)", "sequence (P20813 whole entry)": "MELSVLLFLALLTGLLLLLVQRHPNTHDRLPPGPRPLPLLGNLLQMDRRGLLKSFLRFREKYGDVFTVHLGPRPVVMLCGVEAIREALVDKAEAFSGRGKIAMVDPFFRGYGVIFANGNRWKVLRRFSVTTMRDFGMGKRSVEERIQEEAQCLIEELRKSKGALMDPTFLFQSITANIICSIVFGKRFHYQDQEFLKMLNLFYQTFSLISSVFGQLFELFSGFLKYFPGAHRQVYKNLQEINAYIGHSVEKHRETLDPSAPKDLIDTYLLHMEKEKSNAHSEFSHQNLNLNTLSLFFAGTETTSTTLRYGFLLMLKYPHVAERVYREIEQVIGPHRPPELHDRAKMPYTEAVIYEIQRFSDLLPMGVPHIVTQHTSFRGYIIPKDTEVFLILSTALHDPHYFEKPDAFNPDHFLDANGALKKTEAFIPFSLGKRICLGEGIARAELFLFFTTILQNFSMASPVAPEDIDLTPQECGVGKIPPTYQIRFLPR", "assay": "Inhibition of CYP2B6-mediated bupropion hydroxylase in ultrapooled human liver microsomes", "format": "in vitro ADME", "protocol": "After 3 min of preincubation at 37 °C, the reaction mixtures were incubated with the addition of NADPH in a shaking water bath for 15 min at 37 °C. The reaction was stopped by adding 100 μL of ice cold d9-1′-hydroxybufuralol (internal standard) in methanol.\nNext, the reaction mixtures were incubated with a seven-CYP probe substrate cocktail or bupropion for 15 min at 37 °C.\nThe LC-MS/MS system was comprised of an Agilent 6495 triple quadrupole mass spectrometer coupled with an Agilent 1290 Infinity system (Agilent Technologies, CA, USA). The column and autosampler temperatures were 40 °C and 4 °C, respectively.\nThe data were processed using Mass Hunter software (Agilent Technologies).\n12.5 (Systat Software, Inc.; San Jose, CA, USA). […] 1.1 (Systat Software, Inc.)."}, "CYP2C19": {"molecular_target": "CYP2C19 (Homo sapiens, UniProt P33261)", "sequence (P33261 whole entry)": "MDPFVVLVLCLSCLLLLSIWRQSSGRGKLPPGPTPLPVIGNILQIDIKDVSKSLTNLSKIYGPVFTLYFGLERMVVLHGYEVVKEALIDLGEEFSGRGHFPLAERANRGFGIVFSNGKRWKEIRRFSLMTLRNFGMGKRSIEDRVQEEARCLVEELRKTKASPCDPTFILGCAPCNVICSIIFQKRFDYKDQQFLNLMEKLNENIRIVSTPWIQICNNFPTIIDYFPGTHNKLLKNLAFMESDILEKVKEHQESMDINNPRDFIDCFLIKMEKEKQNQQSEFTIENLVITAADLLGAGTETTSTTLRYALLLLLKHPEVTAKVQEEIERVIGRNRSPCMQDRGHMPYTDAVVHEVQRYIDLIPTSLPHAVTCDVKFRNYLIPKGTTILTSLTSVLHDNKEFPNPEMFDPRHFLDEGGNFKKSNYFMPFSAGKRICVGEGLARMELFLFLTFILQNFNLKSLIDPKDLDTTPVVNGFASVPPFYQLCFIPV", "assay": "Inhibition of CYP2C19-mediated [S]-mephenytoin 4′-hydroxylase in ultrapooled human liver microsomes", "format": "in vitro ADME", "protocol": "The inhibitory potentials (IC50 values) of APINACA and typical CYP inhibitors on CYP 1A2, 2A6, 2C8, 2C9, 2C19, 2D6, and 3A4 activities in pooled human liver microsomes were evaluated following our previous method using a cocktail of CYP substrates, followed by LC–MS/MS [43]. […] After 3 min of preincubation at 37 °C, the reaction mixtures were incubated for 15 min at 37 °C with the addition of NADPH in a shaking water bath. The reaction was stopped by adding 100 μL of ice cold methanol containing internal standards (d9-1′-hydroxybufuralol for 1′-hydroxybufuralol, 4′-hydroxydiclofenac, 7-hydroxycoumarin, 1′-hydroxymidazolam, and 4′-hydroxymephenytoin; ^13C2, ^15N-acetaminophen for acetaminophen and N-desethylamodiaquine). The incubation mixtures were centrifuged at 13,000× g for 8 min at 4 °C, and 50 μL of each supernatant was diluted with 50 μL of water. Aliquots (5 μL) of the diluted supernatants were analyzed by LC–MS/MS. All assays were performed in triplicate, and the average values were used for subsequent calculations.\nTo measure the time-dependent inhibition, human liver microsomes were preincubated with the various concentrations of APINACA (final concentrations of 0.1−100 μM) and NADPH for 30 min at 37 °C. Next, the reaction mixtures were incubated with a seven-CYP probe substrate cocktail or bupropion for 15 min at 37 °C. […]"}, "OAT1": {"molecular_target": "OAT1 (Homo sapiens, UniProt Q4U2R8)", "sequence (Q4U2R8 whole entry)": "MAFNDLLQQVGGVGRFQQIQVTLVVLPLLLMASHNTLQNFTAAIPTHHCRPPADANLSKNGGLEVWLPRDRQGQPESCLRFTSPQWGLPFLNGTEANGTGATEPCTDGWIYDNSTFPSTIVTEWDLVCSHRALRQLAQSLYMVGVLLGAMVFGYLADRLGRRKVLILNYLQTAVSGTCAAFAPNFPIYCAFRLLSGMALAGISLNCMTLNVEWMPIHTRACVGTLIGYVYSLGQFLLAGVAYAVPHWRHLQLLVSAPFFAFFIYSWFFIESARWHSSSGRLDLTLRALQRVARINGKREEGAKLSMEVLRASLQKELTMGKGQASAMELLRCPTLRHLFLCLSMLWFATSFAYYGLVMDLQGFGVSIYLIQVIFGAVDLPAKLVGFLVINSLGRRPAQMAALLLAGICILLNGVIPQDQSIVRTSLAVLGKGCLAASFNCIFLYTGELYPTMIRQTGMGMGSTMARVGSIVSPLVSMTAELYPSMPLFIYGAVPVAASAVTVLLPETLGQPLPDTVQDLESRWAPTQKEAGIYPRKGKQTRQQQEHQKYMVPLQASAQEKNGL", "assay": "Uptake of [3-H]para-aminohippuric acid in HEK293-OAT1 cells"}}, "note": "Like-named read-outs stand apart in the source and are kept apart here.", "data": [{"compound": "CCCCCn1nc(C(=O)NC23CC4CC(CC(C4)C2)C3)c2ccccc21", "note": "[APINACA, N-(1-adamantyl)-1-pentyl-1H-indazole-3-carboxamide]", "values": [{"measurement": "IC50", "setting": "CYP2B6", "result": "> 100", "unit": "µM"}, {"measurement": "IC50", "setting": "CYP2B6; read-out: IC50 (μM) With Preincubation, CYP2B6 bupropion hydroxylase, ultrapooled human liver microsomes, 30-min preincubation with NADPH", "result": "> 100", "unit": "µM"}, {"measurement": "IC50", "setting": "CYP2C19", "result": "> 100", "unit": "µM"}, {"measurement": "IC50", "setting": "CYP2C19; read-out: IC50 (μM) With Preincubation, CYP2C19 [S]-mephenytoin 4′-hydroxylase, ultrapooled human liver microsomes, 30-min preincubation with NADPH", "result": "> 100", "unit": "µM"}, {"measurement": "IC50", "setting": "OAT1", "result": "> 250", "unit": "µM"}]}]}
